For experiment [1], the target named is T1, Muscarinic acetylcholine receptor M1 (Homo sapiens, UniProt P11229).
T1 sequence (P11229 whole entry): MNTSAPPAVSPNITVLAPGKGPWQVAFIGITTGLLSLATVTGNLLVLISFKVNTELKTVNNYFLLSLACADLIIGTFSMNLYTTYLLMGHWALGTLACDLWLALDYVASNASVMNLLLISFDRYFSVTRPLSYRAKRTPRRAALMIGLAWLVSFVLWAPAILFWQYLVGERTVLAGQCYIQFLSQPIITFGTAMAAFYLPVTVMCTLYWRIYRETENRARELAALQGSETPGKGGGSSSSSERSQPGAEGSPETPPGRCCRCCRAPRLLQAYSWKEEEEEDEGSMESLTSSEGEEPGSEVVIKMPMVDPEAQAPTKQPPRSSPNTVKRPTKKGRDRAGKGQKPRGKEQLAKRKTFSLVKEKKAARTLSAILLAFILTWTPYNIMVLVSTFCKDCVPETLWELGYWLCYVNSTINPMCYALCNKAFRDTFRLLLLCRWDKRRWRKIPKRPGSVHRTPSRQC
It counts as functional, cell-based.

The target in experiment [2] is T1, Muscarinic acetylcholine receptor M1. The class given is functional, cell-based. This is another data set of the same source.
The target in experiment [3] is Gamma-aminobutyric acid receptor subunit alpha-1/alpha-2/beta-2/gamma-2 (Homo sapiens, UniProt P14867+P18507+P47869+P47870). The class given is protein-complex assay.
Experiment [4] concerns the target Sodium channel protein type 5 subunit alpha (Homo sapiens, UniProt Q14524). It counts as functional, cell-based.
In experiment [5] the target is T2, Alpha-1A adrenergic receptor (Homo sapiens, UniProt P35348).
T2 sequence (P35348 whole entry): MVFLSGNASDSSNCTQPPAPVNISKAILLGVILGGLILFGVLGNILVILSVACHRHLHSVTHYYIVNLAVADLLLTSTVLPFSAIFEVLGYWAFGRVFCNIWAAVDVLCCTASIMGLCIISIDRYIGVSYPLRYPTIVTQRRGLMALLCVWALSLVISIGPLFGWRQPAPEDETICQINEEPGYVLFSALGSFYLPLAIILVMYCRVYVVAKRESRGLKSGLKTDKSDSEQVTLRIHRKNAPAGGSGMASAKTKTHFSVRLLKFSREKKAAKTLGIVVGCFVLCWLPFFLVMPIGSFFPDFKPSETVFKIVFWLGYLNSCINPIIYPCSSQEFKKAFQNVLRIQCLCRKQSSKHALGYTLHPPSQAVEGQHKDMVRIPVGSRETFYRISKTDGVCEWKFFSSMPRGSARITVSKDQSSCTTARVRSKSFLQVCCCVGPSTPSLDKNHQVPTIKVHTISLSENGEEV

For a further experiment, the target named is T3, D(4) dopamine receptor (Homo sapiens, UniProt P21917).
T3 sequence (P21917 whole entry): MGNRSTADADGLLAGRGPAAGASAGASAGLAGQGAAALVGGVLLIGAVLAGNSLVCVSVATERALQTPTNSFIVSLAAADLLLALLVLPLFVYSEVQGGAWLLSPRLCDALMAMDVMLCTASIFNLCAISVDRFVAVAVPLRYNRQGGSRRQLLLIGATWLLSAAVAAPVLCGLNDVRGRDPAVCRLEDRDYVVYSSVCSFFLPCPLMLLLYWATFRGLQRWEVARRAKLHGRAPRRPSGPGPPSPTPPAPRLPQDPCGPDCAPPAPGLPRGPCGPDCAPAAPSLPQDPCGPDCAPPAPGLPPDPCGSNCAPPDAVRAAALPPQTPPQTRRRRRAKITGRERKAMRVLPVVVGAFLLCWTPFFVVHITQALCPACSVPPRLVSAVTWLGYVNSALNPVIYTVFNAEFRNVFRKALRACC

Experiment [6] concerns the target Gamma-aminobutyric acid type B receptor subunit 1 (Homo sapiens, UniProt Q9UBS5).
Experiment [7] deals with 5-hydroxytryptamine receptor 7 (Homo sapiens, UniProt P34969).
Another experiment concerns the target Cannabinoid receptor 1 (Homo sapiens, UniProt P21554). It counts as functional.
A further experiment deals with Substance-P receptor (Homo sapiens, UniProt P25103).
Experiment [8] has as its target 5-hydroxytryptamine receptor 6 (Homo sapiens, UniProt P50406).
For experiment [9], the target named is Gamma-aminobutyric acid receptor subunit alpha-1 (Rattus norvegicus, UniProt P62813).
Experiment [10] deals with T1, Muscarinic acetylcholine receptor M1. The class given is functional, cell-based. This is another data set of the same source.
Experiment [11] has the same target. It counts as functional, cell-based. This is another data set of the same source.
For experiment [12], the target named is Sodium-dependent serotonin transporter (Homo sapiens, UniProt P31645).
Note: assay procedure not described here.

Sequence of 5-hydroxytryptamine receptor 7 (P34969 whole entry): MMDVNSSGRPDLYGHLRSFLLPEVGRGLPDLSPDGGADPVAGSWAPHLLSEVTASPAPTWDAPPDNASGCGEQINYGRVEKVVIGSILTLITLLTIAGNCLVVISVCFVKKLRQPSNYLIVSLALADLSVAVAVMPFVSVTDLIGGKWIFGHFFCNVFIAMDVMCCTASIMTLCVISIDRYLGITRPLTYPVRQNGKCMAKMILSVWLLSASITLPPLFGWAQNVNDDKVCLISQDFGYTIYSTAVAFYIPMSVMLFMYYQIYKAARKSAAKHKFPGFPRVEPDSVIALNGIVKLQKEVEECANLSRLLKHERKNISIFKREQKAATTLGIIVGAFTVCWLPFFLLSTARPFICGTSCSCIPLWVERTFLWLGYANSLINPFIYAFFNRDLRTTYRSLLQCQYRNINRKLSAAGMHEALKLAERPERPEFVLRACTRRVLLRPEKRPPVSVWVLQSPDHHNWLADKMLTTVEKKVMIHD
Sequence of Gamma-aminobutyric acid type B receptor subunit 1 (Q9UBS5 whole entry): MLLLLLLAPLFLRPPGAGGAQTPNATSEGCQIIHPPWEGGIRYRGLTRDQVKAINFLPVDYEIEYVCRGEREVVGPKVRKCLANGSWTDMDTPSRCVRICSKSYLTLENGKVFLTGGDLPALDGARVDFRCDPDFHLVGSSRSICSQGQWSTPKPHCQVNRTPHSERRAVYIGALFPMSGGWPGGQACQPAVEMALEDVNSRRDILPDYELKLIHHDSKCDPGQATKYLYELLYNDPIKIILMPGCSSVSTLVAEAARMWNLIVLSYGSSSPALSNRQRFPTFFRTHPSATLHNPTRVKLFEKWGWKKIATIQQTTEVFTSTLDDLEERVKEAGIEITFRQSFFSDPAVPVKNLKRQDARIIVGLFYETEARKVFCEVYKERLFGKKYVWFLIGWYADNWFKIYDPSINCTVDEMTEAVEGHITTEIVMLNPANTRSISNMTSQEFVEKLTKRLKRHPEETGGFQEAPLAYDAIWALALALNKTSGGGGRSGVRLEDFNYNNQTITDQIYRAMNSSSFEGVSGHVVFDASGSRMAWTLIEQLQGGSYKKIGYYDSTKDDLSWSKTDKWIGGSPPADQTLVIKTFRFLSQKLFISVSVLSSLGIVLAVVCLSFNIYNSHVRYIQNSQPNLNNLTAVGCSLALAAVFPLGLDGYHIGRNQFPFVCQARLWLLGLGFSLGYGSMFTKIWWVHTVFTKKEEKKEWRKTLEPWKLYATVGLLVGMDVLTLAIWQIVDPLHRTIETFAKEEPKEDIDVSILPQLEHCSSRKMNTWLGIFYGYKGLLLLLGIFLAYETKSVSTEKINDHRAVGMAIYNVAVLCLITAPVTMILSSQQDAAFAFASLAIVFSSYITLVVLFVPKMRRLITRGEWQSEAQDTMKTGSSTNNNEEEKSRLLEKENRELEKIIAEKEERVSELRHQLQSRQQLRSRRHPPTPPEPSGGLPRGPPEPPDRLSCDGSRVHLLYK
Sequence of Cannabinoid receptor 1 (P21554 whole entry): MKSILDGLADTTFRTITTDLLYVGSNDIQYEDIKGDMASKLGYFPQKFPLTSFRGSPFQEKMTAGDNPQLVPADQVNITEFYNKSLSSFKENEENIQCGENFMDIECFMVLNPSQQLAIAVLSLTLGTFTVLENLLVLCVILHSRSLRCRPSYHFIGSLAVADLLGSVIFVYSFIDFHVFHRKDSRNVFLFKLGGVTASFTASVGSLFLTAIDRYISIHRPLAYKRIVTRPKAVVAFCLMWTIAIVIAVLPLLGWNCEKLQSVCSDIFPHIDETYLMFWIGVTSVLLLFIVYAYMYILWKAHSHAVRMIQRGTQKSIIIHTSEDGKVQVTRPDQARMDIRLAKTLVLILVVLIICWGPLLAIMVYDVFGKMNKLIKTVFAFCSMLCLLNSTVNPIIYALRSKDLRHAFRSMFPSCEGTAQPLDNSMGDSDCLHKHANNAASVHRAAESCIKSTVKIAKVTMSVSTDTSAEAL
Sequence of Gamma-aminobutyric acid receptor subunit alpha-1/alpha-2/beta-2/gamma-2 (P14867 whole entry): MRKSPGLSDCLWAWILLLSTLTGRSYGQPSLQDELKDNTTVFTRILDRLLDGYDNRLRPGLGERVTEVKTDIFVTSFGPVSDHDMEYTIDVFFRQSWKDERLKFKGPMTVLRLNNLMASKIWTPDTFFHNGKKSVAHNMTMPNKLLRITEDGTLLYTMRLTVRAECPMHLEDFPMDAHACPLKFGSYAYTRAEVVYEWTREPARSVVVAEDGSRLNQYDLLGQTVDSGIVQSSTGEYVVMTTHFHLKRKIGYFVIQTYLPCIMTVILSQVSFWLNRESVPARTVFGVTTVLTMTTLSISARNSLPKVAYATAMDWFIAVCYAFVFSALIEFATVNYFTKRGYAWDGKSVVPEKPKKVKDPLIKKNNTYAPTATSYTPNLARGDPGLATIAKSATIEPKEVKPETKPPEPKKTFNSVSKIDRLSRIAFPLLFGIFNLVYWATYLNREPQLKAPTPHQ
Sequence of Gamma-aminobutyric acid receptor subunit alpha-1/alpha-2/beta-2/gamma-2 (P47870 whole entry): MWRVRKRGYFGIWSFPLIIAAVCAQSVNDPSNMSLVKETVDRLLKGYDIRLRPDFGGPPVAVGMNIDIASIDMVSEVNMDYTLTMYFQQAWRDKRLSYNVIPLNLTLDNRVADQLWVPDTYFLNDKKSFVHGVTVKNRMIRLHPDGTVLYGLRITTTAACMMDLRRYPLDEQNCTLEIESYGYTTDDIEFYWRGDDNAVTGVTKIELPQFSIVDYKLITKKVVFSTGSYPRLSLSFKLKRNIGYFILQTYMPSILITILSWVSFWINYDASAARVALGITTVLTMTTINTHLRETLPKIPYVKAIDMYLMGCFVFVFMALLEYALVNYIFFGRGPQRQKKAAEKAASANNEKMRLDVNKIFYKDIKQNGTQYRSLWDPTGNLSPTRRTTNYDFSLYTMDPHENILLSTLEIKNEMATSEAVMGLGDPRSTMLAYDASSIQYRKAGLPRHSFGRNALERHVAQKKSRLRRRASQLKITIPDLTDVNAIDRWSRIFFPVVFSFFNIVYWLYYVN
Sequence of Gamma-aminobutyric acid receptor subunit alpha-1/alpha-2/beta-2/gamma-2 (P18507 whole entry): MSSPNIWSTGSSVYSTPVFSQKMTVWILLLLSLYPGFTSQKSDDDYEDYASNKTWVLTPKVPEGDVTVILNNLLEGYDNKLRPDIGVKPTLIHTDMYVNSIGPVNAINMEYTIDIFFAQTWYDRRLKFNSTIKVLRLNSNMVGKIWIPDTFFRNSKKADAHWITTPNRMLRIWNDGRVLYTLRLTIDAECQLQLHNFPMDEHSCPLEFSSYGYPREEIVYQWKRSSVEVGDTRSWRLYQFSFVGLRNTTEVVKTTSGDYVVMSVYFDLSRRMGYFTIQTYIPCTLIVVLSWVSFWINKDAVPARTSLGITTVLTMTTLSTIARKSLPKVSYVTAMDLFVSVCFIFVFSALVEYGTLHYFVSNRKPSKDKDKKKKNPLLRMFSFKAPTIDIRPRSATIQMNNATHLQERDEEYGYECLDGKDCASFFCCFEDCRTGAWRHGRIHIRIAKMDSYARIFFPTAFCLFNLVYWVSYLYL
Sequence of Gamma-aminobutyric acid receptor subunit alpha-1/alpha-2/beta-2/gamma-2 (P47869 whole entry): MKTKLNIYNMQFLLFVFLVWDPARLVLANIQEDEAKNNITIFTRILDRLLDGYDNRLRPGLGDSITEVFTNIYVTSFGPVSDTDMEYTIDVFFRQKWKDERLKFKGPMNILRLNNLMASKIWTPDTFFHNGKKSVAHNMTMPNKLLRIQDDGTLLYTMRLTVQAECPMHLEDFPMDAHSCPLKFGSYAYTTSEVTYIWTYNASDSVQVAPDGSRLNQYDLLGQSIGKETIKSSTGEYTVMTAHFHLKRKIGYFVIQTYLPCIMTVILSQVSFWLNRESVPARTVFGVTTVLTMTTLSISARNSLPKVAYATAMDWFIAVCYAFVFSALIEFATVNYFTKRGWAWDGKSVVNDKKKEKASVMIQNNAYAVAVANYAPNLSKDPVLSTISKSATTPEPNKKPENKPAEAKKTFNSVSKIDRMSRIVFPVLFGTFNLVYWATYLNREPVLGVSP
Sequence of Substance-P receptor (P25103 whole entry): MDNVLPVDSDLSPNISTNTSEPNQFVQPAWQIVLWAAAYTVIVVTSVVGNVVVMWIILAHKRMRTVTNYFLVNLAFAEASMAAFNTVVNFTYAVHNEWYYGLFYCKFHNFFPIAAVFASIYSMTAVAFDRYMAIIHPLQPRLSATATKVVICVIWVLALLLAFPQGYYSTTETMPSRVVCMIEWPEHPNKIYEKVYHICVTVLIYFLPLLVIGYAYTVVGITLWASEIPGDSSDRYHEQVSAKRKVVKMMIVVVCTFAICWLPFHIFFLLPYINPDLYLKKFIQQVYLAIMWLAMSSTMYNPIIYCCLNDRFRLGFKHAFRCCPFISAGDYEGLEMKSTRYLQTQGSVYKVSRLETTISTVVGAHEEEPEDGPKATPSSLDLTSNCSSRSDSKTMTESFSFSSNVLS
Sequence of Sodium-dependent serotonin transporter (P31645 whole entry): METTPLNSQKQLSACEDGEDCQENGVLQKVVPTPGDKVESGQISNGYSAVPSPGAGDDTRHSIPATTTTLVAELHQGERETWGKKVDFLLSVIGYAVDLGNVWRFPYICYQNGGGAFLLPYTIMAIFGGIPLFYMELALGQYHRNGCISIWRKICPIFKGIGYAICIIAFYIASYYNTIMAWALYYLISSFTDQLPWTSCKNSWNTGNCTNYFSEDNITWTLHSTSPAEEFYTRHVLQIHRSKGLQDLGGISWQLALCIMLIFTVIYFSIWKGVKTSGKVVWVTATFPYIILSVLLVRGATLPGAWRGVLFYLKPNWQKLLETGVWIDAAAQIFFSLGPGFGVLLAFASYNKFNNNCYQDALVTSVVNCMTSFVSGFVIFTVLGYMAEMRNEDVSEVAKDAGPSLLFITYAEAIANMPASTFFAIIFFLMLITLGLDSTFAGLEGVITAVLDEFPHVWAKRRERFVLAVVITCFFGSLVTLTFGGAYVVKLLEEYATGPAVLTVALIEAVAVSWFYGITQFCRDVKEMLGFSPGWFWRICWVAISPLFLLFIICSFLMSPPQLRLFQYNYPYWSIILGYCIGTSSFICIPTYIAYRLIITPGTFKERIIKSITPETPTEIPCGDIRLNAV

On to `C[N@+]1(CCF)[C@@H]2CC[C@H]1C[C@@H](OC(=O)C(O)(c1ccccc1)c1ccccc1)C2`, for which the AC50 in experiment [1] is 0.5 nM; in experiment [2], more than 30 µM.

With `O=C(O)CCCCC1CCSS1` (stereo not drawn) [LIPOIC ACID, ALPHA], in experiment [3], the AC50 is more than 30 µM.

For `Cn1c(=O)cc(N2CCC[C@@H](N)C2)n(Cc2ccccc2C#N)c1=O` [ALOGLIPTIN], the half-maximal activity concentration (AC50) was more than 150 µM in experiment [4]; more than 10 µM in [5]; more than 10 µM on D(4) dopamine receptor; more than 10 µM in [6]; more than 10 µM in [7]; more than 10 µM on Cannabinoid receptor 1. In addition, the AC50 (at Substance-P receptor; in experiment [8]) was more than 10 µM throughout.

As to `Nc1c2ccccc2nc2ccccc12` [AMINACRINE], the AC50 in experiment [9] was more than 30 µM; in experiment [10] it was more than 30 µM; in experiment [11], 20.4 µM; in experiment [12] it was more than 30 µM.

Usually AC50 stands for the midpoint of the concentration-response curve, whichever way the signal moves. Lower therefore signals activity at low concentration.

(Values after ChEMBL document CHEMBL5291721, “A preclinical secondary pharmacology resource illuminates target-adverse drug reaction associations of marketed drugs” (Nat Commun, 2023).)
